Laboratory results: patent US8415378B2, “Isoxazol-3(2H)-one analogs as therapeutic agents” (AstraZeneca AB, priority 2009, dated 2013)

What follows are molecules tested against T1, human Glu-plasminogen (Homo sapiens, UniProt P00747) (assay: Clot-lysis buffer assay).
T1 construct: human Glu-plasminogen; purchased Chromogenix, Italy
T1 sequence (P00747 20-810 limits assumed): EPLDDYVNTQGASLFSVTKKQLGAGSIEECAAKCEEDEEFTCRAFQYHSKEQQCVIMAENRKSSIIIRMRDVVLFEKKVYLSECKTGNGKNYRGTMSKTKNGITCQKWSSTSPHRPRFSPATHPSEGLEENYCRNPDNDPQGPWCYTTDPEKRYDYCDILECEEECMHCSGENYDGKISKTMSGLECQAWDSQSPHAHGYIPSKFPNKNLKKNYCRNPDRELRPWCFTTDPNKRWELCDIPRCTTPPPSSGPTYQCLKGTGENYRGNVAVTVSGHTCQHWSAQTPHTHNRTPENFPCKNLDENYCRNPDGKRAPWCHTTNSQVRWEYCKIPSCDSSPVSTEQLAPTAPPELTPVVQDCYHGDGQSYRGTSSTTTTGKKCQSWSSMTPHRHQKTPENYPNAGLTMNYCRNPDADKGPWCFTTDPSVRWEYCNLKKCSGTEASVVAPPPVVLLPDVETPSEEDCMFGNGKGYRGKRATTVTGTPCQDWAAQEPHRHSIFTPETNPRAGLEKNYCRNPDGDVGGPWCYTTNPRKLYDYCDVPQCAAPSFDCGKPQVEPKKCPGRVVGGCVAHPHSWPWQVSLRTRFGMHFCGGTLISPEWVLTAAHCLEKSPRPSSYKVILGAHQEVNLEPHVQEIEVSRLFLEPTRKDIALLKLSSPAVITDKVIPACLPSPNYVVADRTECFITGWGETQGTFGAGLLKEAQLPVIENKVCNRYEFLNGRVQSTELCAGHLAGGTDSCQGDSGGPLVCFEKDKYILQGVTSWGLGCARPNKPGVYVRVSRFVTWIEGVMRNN
Assay type: biochemical
Protocol: The assay method used for evaluating biological activity of the compounds according to the invention was Clot-lysis buffer assay.
Tested substance were added to the reaction mixture in 10% DMSO. Reaction was started by the addition of thrombin.
Measured according to the Clot-lysis buffer assay described above.
`CS(=O)(=O)c1ccc([C@H]2C[C@@H](c3cc(=O)[nH]o3)CCN2)cc1` [Example 38, 5-((2R,4S)-2-(4-(Methylsulfonyl)phenyl)piperidin-4-yl)isoxazol-3(2H)-one] gave an IC50 of 1.5 µM.
Molecule `O=c1cc([C@@H]2CCN[C@H](Cc3cccc(C(F)(F)F)c3)C2)o[nH]1` [Example 108, 5-((2S,4R)-2-(3-(Trifluoromethyl)benzyl)piperidin-4-yl)isoxazol-3(2H)-one] has an IC50 of 70.5 µM.
`O=c1cc([C@@H]2CCN[C@@H](CCc3ccc(F)cc3)C2)o[nH]1` (relative stereo) [Example 94, 5-(Trans-2-(4-fluorophenethyl)piperidin-4-yl)isoxazol-3(2H)-one] showed an IC50 of 4.6 µM.
Work on `O=c1cc([C@H]2CCN[C@@H](c3ccc(Cl)cc3F)C2)o[nH]1` [Example 45, 5-((2R,4S)-2-(4-Chloro-2-fluorophenyl)piperidin-4-yl)isoxazol-3(2H)-one] yielded an IC50 of 2.35 µM.
Molecule `O=c1cc([C@H]2CCN[C@@H](Cc3cc(F)cc(F)c3)C2)o[nH]1` [Example 130, 5-((2R,4S)-2-(3,5-Difluorobenzyl)piperidin-4-yl)isoxazol-3(2H)-one] has an IC50 of 1.1 µM.
For `O=c1cc([C@H]2CCN[C@@H](c3ccc(Cl)cc3)C2)o[nH]1` [Example 27, 5-((2R,4S)-2-(4-Chlorophenyl)piperidin-4-yl)isoxazol-3(2H)-one], the IC50 was 1.5 µM.
In the case of `O=c1cc([C@H]2CCN[C@H](Cc3ccc(F)c(F)c3)C2)o[nH]1` [Example 122, 5-((2S,4S)-2-(3,4-Difluorobenzyl)piperidin-4-yl)isoxazol-3(2H)-one], the IC50 is reported as 4.4 µM.
`Cc1cc([C@@H]2C[C@H](c3cc(=O)[nH]o3)CCN2)ccc1C(F)(F)F` [Example 68, 5-((2S,4R)-2-(3-Methyl-4-(trifluoromethyl)phenyl)piperidin-4-yl)isoxazol-3(2H)-one] gave an IC50 of 81.1 µM.
In the case of `O=c1cc([C@H]2CCN[C@@H](Cc3ccc(F)cc3F)C2)o[nH]1` [Example 134, 5-((2R,4S)-2-(2,4-Difluorobenzyl)piperidin-4-yl)isoxazol-3(2H)-one], the IC50 is reported as 0.85 µM.
Molecule `O=c1cc([C@H]2CCN[C@@H](Cc3ccc(C(F)(F)F)cc3)C2)o[nH]1` [Example 104, 5-((2R,4S)-2-(4-(Trifluoromethyl)benzyl)piperidin-4-yl)isoxazol-3(2H)-one] has an IC50 of 1.5 µM.
`O=c1cc([C@H]2CCN[C@@H](CCc3ccc(F)cc3)C2)o[nH]1` [Example 92, 5-((2S,4S)-2-(4-Fluorophenethyl)piperidin-4-yl)isoxazol-3(2H)-one] showed an IC50 of 1.1 µM.
With `O=c1cc([C@H]2CCN[C@@H](c3cc(Cl)cc(Cl)c3)C2)o[nH]1` [Example 55, 5-((2R,4S)-2-(3,5-Dichlorophenyl)piperidin-4-yl)isoxazol-3(2H)-one] the IC50 was 0.6 µM.
In the case of `O=c1cc([C@@H]2CCN[C@H](Cc3ccccc3C(F)(F)F)C2)o[nH]1` [Example 111, 5-((2S,4R)-2-(2-(trifluoromethyl)benzyl)piperidin-4-yl)isoxazol-3(2H)-one], the IC50 is reported as 31.3 µM.
Molecule `CC(C)(C)c1ccc(C[C@H]2C[C@@H](c3cc(=O)[nH]o3)CCN2)cc1` [Example 12, 5-((2R,4S)-2-(4-tert-Butylbenzyl)piperidin-4-yl)isoxazol-3(2H)-one] has an IC50 of 2.25 µM.
Work on `O=c1cc([C@@H]2CCN[C@@H](Cc3cc(F)cc(F)c3)C2)o[nH]1` [Example 133, 5-((2R,4R)-2-(3,5-Difluorobenzyl)piperidin-4-yl)isoxazol-3(2H)-one] yielded an IC50 of 120 µM.
For `CC(C)(C)c1ccc([C@H]2C[C@H](c3cc(=O)[nH]o3)CCN2)cc1` (relative stereo) [Example 37, 5-(Trans-2-(4-tert-butylphenyl)piperidin-4-yl)isoxazol-3(2H)-one], the IC50 was 228 µM.
`O=c1cc([C@@H]2CCN[C@H](Cc3cc(F)c(F)c(F)c3)C2)o[nH]1` [Example 144, 5-((2S,4R)-2-(3,4,5-Trifluorobenzyl)piperidin-4-yl)isoxazol-3(2H)-one] was tested, and the IC50 was 88.2 µM.
For `O=c1cc([C@H]2CCN[C@@H](c3ccc(F)cc3)C2)o[nH]1` [Example 25, 5-((2R,4S)-2-(4-Fluorophenyl)piperidin-4-yl)isoxazol-3(2H)-one], the IC50 was 2.5 µM.
`O=c1cc([C@@H]2CCN[C@@H](c3ccc(Cl)cc3F)C2)o[nH]1` (relative stereo) [Example 46, 5-(Trans-2-(4-chloro-2-fluorophenyl)piperidin-4-yl)isoxazol-3(2H)-one] was tested, and the IC50 was 90.7 µM.
`Cc1cc([C@H]2C[C@@H](c3cc(=O)[nH]o3)CCN2)ccc1C(F)(F)F` [Example 67, 5-((2R,4S)-2-(3-Methyl-4-(trifluoromethyl)phenyl)piperidin-4-yl)isoxazol-3(2H)-one] showed an IC50 of 1.3 µM.
Work on `O=c1cc([C@H]2CCN[C@@H](CC3CCC(F)(F)CC3)C2)o[nH]1` [Example 89, 5-((2S,4S)-2-((4,4-Difluorocyclohexyl)methyl)piperidin-4-yl)isoxazol-3(2H)-one] yielded an IC50 of 1.5 µM.
`Cn1nnc([C@H]2C[C@@H](c3cc(=O)[nH]o3)CCN2)n1` [Example 81, 5-((2R,4S)-2-(2-Methyl-2H-tetrazol-5-yl)piperidin-4-yl)isoxazol-3(2H)-one] was tested, and the IC50 was 1.6 µM.
`O=c1cc([C@@H]2CCN[C@H](Cc3ccc(F)c(F)c3)C2)o[nH]1` [Example 121, 5-((2S,4R)-2-(3,4-Difluorobenzyl)piperidin-4-yl)isoxazol-3(2H)-one] showed an IC50 of 120 µM.
`O=c1cc([C@@H]2CCN[C@@H](C(F)F)C2)o[nH]1` (relative stereo) [Example 88, 5-(Trans-2-(difluoromethyl)piperidin-4-yl)isoxazol-3(2H)-one] showed an IC50 of 31.2 µM.
`O=c1cc([C@H]2CCN[C@@H](c3cc(F)c(F)cc3F)C2)o[nH]1` [Example 63, 5-((2R,4S)-2-(2,4,5-Trifluorophenyl)piperidin-4-yl)isoxazol-3(2H)-one] was tested, and the IC50 was 3.22 µM.
`O=c1cc([C@@H]2CCN[C@H](Cc3ccc(F)cc3F)C2)o[nH]1` [Example 135, 5-((2S,4R)-2-(2,4-Difluorobenzyl)piperidin-4-yl)isoxazol-3(2H)-one] was tested, and the IC50 was 69.1 µM.
Molecule `O=c1cc([C@H]2CCN[C@H](Cc3ccc(C(F)(F)F)cc3)C2)o[nH]1` [Example 105, 5-((2S,4S)-2-(4-(Trifluoromethyl)benzyl)piperidin-4-yl)isoxazol-3(2H)-one] has an IC50 of 7.2 µM.
`O=c1cc([C@H]2CCN[C@@H](C3CCCCC3)C2)o[nH]1` [Example 79, 5-((2R,4S)-2-Cyclohexylpiperidin-4-yl)isoxazol-3(2H)-one] was tested, and the IC50 was 3.3 µM.
In the case of `O=c1cc([C@H]2CCN[C@@H](c3ccc(C(F)(F)F)nc3)C2)o[nH]1` [Example 40, 5-((2R,4S)-2-(6-(Trifluoromethyl)pyridin-3-yl)piperidin-4-yl)isoxazol-3(2H)-one], the IC50 is reported as 1.5 µM.
In the case of `O=c1cc([C@H]2CCN[C@@H](c3ccccc3)C2)o[nH]1` [Example 77, 5-((2R,4S)-2-Phenylpiperidin-4-yl)isoxazol-3(2H)-one], the IC50 is reported as 8 µM.
In the case of `CS(=O)(=O)c1ccc(C[C@H]2C[C@@H](c3cc(=O)[nH]o3)CCN2)cc1` [Example 117, 5-((2R,4S)-2-(4-(Methylsulfonyl)benzyl)piperidin-4-yl)isoxazol-3(2H)-one], the IC50 is reported as 0.8 µM.
`Cn1nnnc1[C@H]1C[C@@H](c2cc(=O)[nH]o2)CCN1` [Example 83, 5-((2R,4S)-2-(1-Methyl-1H-tetrazol-5-yl)piperidin-4-yl)isoxazol-3(2H)-one] showed an IC50 of 42 µM.
Work on `O=c1cc([C@@H]2CCN[C@@H](c3ccc(F)cc3)C2)o[nH]1` (relative stereo) [Example 26, 5-(Trans-2-(4-fluorophenyl)piperidin-4-yl)isoxazol-3(2H)-one] yielded an IC50 of 73.8 µM.
Molecule `O=c1cc([C@H]2CCN[C@H](C3CCCCC3)C2)o[nH]1` [Example 80, 5-((2S,4S)-2-Cyclohexylpiperidin-4-yl)isoxazol-3(2H)-one] has an IC50 of 44 µM.
With `O=c1cc([C@@H]2CCN[C@@H](Cc3ccc(C(F)(F)F)c(F)c3)C2)o[nH]1` (relative stereo) [Example 142, 5-(Trans-2-(3-fluoro-4-(trifluoromethyl)benzyl)piperidin-4-yl)isoxazol-3(2H)-one] the IC50 was 1.8 µM.
Work on `O=c1cc([C@H]2CCN[C@@H](Cc3ccc(C(F)(F)F)c(F)c3)C2)o[nH]1` [Example 140, 5-((2R,4S)-2-(3-Fluoro-4-(trifluoromethyl)benzyl)piperidin-4-yl)isoxazol-3(2H)-one] yielded an IC50 of 0.6 µM.
`O=c1cc([C@H]2CCN[C@@H](Cc3cc(F)cc(C(F)(F)F)c3)C2)o[nH]1` [Example 137, 5-((2R,4S)-2-(3-Fluoro-5-(trifluoromethyl)benzyl)piperidin-4-yl)isoxazol-3(2H)-one] was tested, and the IC50 was 1 µM.
Molecule `O=c1cc([C@@H]2CCN[C@@H](COC3CCCCC3)C2)o[nH]1` (relative stereo) [Example 86, 5-(Trans-2-(cyclohexyloxymethyl)piperidin-4-yl)isoxazol-3(2H)-one] has an IC50 of 15.6 µM.
For `O=c1cc([C@H]2CCN[C@@H](C(F)F)C2)o[nH]1` [Example 87, 5-((2R,4S)-2-(Difluoromethyl)piperidin-4-yl)isoxazol-3(2H)-one], the IC50 was 10.7 µM.
In the case of `O=c1cc([C@@H]2CCN[C@@H](c3ccc(Cl)cc3)C2)o[nH]1` (relative stereo) [Example 29, 5-(Trans-2-(4-chlorophenyl)piperidin-4-yl)isoxazol-3(2H)-one], the IC50 is reported as 24 µM.
`O=c1cc([C@@H]2CCN[C@@H](Cc3cc(F)c(F)c(F)c3)C2)o[nH]1` (relative stereo) [Example 145, 5-(Trans-2-(3,4,5-trifluorobenzyl)piperidin-4-yl)isoxazol-3(2H)-one] gave an IC50 of 4.3 µM.
`Cc1cc(C(F)(F)F)ccc1[C@H]1C[C@@H](c2cc(=O)[nH]o2)CCN1` [Example 72, 5-((2R,4S)-2-(2-Methyl-4-(trifluoromethyl)phenyl)piperidin-4-yl)isoxazol-3(2H)-one] gave an IC50 of 0.6 µM.
`O=c1cc([C@@H]2CCN[C@@H](Cc3ccccc3C(F)(F)F)C2)o[nH]1` (relative stereo) [Example 112, 5-(Trans-2-(2-(trifluoromethyl)benzyl)piperidin-4-yl)isoxazol-3(2H)-one] gave an IC50 of 5.5 µM.
Molecule `O=c1cc([C@@H]2CCN[C@H](c3cccc(C(F)(F)F)c3)C2)o[nH]1` [Example 31, 5-((2S,4R)-2-(3-(Trifluoromethyl)phenyl)piperidin-4-yl)isoxazol-3(2H)-one] has an IC50 of 33.1 µM.
